Measured values published in patent US20110177156A1, “Sterol-Modified Amphiphilic Lipids” (priority 2007, published 2011).
Read-outs that look alike come from different tables or passages of the source.

Legend:
phospholipase A2 (PLA2) [1] = details: for release of all-trans retinoic acid from SML7a: pH 8.8, Triton X-100
Protocol: Retinoic acid was used as the model drug for the investigation of enzyme triggered drug release. The release of all-trans retinoic acid from SML7a (1-cholesteryl-2-all-trans-retinoyl-sn-glycerophosphocholine) was evaluated with phospholipase A2 (PLA2) from a variety of sources including bovine, naja mossambica, and streptomyces vialaceoruber. All PLA2s were from Aldrich-Sigma. A chloroform solution of SML7a (50 μmol) in 50 mL round-bottom flask was evaporated by the rotavapor. The flask was placed under high vacuum overnight. The lipid film was hydrated in 10 mL pH 8.8 buffer containing 20 mM Triton X-100, 10 mM CaCl2, 10 mM HEPES, and 50 mM KCl. […] Aliquots of the solution (250 μL) were preincubated at 37° C. for 10 minutes, then used for the PLA2 assay. Aliquots of PLA2 solution (25 units in 250 μL pH 8.8 buffer of 10 mM HEPES, and 50 mM KCl) were preincubated at 37° C. for 10 minutes, and mixed with the aliquots of pre-warmed solution of SML7a. At different time point, the hydrolysis samples were analyzed by TLC, and quantified by densimeter.

phospholipase A2 (PLA2) [2] = biological target: T1, phospholipase A2 (PLA2) (Bos taurus, UniProt P00593); assay: Drug release by phospholipase A2 (bovine); format: biochemical; details: bovine PLA2, 37° C., pH 8.8, Triton X-100
T1 construct: purchased Aldrich-Sigma
Source text: All PLA2s were from Aldrich-Sigma. […] The flask was placed under high vacuum overnight.

T1 sequence (P00593 23-145): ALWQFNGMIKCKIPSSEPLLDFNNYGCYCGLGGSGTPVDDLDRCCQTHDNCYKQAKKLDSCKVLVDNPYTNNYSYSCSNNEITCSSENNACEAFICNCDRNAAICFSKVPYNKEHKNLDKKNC

## 1-cholesteryl-2-all-trans-retinoyl-sn-glycerophosphocholine [SML7a]
Phospholipase A2 (PLA2) [1]; naja mossambica PLA2, 37° C.
  release of all-trans retinoic acid from SML7a: completely release
Phospholipase A2 (PLA2) [1]; naja mossambica PLA2 compared with the two other PLA2
  relative activity of the PLA2 on SML7a: highest activity
Phospholipase A2 (PLA2) [1]; streptomyces vialaceoruber PLA2, 37° C.
  release of all-trans retinoic acid from SML7a: completely release
Phospholipase A2 (PLA2) [2]
  release of all-trans retinoic acid from SML7a: completely release
